Organism: Rattus norvegicus
Experiment: Open TG-GATES - Regimen: Single
Type: toxicity, organism-based, Sprague-Dawley
Set-up: regimen Single, gender Male, age 6 weeks
Details: in vivo, po, 0 mg/kg, route gavage, dose level Control; for APTT / Bas / Eos / Fbg / Hb / Ht / Lym / MCH / MCHC / MCV / Mono / Neu / PT / Plat / RBC / Ret / WBC: tissue Blood; for KIDNEY_L / KIDNEY_R / KIDNEY_TOTAL: tissue Kidney; for LIVER: tissue Liver; for A/G / ALP / ALT / AST / BUN / CRE / Ca / Cl / DBIL / GLC / IP / K / LDH / Na / PL / RALB / TBIL / TC / TG / TP / gamma-GTP: tissue Plasma

O=c1ccc2ccccc2o1 [COUMARIN] showed a TERMINAL_BW (3 h) of 182.8 g, an APTT (3 h) of 16.6 s and a Bas (3 h) of 0%. For the same molecule, the Eos (3 h) was 0.6%, the Fbg (3 h) was 205.4 mg/dL and the Hb (3 h) was 13.5 g/dL. The Ht (3 h) was 40%, the Lym (3 h) was 83.8% and the MCH (3 h) was 22.1 pg. For the same molecule, the MCHC (3 h) was 33.6%, the MCV (3 h) was 65.8 fL and the Mono (3 h) was 4.8%. It also gave a Neu (3 h) of 11%, a PT (3 h) of 12.3 s and a Plat (3 h) of 106.1 x10_4/uL. For the same molecule, the RBC (3 h) was 608.6 x10_4/ul, the Ret (3 h) was 8.9% and the WBC (3 h) was 102.6 x10_2/uL. It also gave a KIDNEY_L (3 h) of 0.8 g, a KIDNEY_R (3 h) of 0.8 g and a KIDNEY_TOTAL (3 h) of 1.7 g. It also gave an LIVER (3 h) of 8.4 g, an A/G (3 h) of 2.1 and an ALP (3 h) of 1014.2 IU/L. It also gave an ALT (3 h) of 43 IU/L, an AST (3 h) of 69.4 IU/L and a BUN (3 h) of 11.2 mg/dL. The CRE (3 h) was 0.5 mg/dL, the Ca (3 h) was 10.9 mg/dL and the Cl (3 h) was 104.8 meq/L. For the same molecule, the DBIL (3 h) was 0.026 mg/dL, the GLC (3 h) was 189.4 mg/dL and the IP (3 h) was 10.7 mg/dL. For the same molecule, the K (3 h) was 4.7 meq/L, the LDH (3 h) was 76.6 IU/L and the Na (3 h) was 138.6 meq/L. For the same molecule, the PL (3 h) was 158.2 mg/dL, the RALB (3 h) was 4 g/dL and the TBIL (3 h) was 0.3 mg/dL. For the same molecule, the TC (3 h) was 81.4 mg/dL, the TG (3 h) was 99.4 mg/dL and the TP (3 h) was 5.8 g/dL. The gamma-GTP (3 h) was 1.6 IU/L, the TERMINAL_BW (6 h) was 179.5 g and the APTT (6 h) was 16.3 s. It also gave a Bas (6 h) of 0%, an Eos (6 h) of 0.8% and a Fbg (6 h) of 205.8 mg/dL. The Hb (6 h) was 13.5 g/dL, the Ht (6 h) was 40.4% and the Lym (6 h) was 75.4%. For the same molecule, the MCH (6 h) was 21.8 pg, the MCHC (6 h) was 33.4% and the MCV (6 h) was 65.4 fL. For the same molecule, the Mono (6 h) was 7.8%, the Neu (6 h) was 16.6% and the PT (6 h) was 12.4 s. It also gave a Plat (6 h) of 108.2 x10_4/uL, an RBC (6 h) of 617.2 x10_4/ul and a Ret (6 h) of 9.3%. The WBC (6 h) was 115.3 x10_2/uL, the KIDNEY_L (6 h) was 0.8 g and the KIDNEY_R (6 h) was 0.9 g. It also gave a KIDNEY_TOTAL (6 h) of 1.7 g, an LIVER (6 h) of 7.7 g and an A/G (6 h) of 2.1. It also gave an ALP (6 h) of 982 IU/L, an ALT (6 h) of 36.4 IU/L and an AST (6 h) of 66.6 IU/L. It also gave a BUN (6 h) of 11.4 mg/dL, a CRE (6 h) of 0.5 mg/dL and a Ca (6 h) of 10.4 mg/dL. For the same molecule, the Cl (6 h) was 107.8 meq/L, the DBIL (6 h) was 0.002 mg/dL and the GLC (6 h) was 184.6 mg/dL. The IP (6 h) was 11.3 mg/dL, the K (6 h) was 5.4 meq/L and the LDH (6 h) was 96.8 IU/L. It also gave a Na (6 h) of 139.4 meq/L, a PL (6 h) of 144.4 mg/dL and an RALB (6 h) of 3.8 g/dL. For the same molecule, the TBIL (6 h) was 0.3 mg/dL, the TC (6 h) was 82 mg/dL and the TG (6 h) was 52.2 mg/dL. The TP (6 h) was 5.6 g/dL and the gamma-GTP (6 h) was 1.4 IU/L.
